# Reference: patent publication US20230349922A1, “H2 Blockers Targeting Liver Macrophages for the Prevention and Treatment of Liver Disease and Cancer” (Université de Strasbourg, priority 2020, published 2023)
# Assays:
# HRH2/cAMP/PKA axis = assay: PLS assessment upon perturbation of the HRH2/cAMP/PKA axis in Huh7.5.1dif cells; assay type: cell-based, human; conditions: 48 hours, histamine 10 μM, 8-CPT cAMP 100 μM, H89 10 μM
# Description: Histamine, 8-CPT, cAMP and H89 Treatment. Huh7.5.1^dif cells were cultured in DMEM containing 1% FBS and 1% DMSO and incubated with histamine (10 μM) or histamine+nizatidine (10 μM) for 48 hours. Fresh medium containing histamine was replenished every 12 hours. For 8-CPT cAMP and H89, Huh7.5.1^dif cells cultured in DMEM 1% DMSO and 1% FBS were incubated with 8-CPT cAMP (100 μM), H89 (1 μM) or DMSO as a control for 48 hours. Fresh medium containing 8-CPT cAMP was replenished every 12 hours.
# Transcriptomic Analysis and PLS Calculation. Gene expression profiling and the 32 gene PLS 32 profiling were performed using 250-500 ng total RNA by using either nCounter Digital Analyzer system (NanoString) or the HumanHT-12 beadarray (Illumina) for the time-course experiments. PLS gene expression was normalized according to 6 housekeeping gene expression using GenePattern genomic analysis toolkits (Hoshida, PLOS ONE, 2010, 5: e15543; Peck et al., Genome Biol., 2006, 7: R61; Reich et al., Nature Genet., 2006, 38: 500-501). Induction or suppression of PLS risk signature was determined as previously reported by using Gene Set Enrichment Analysis (GSEA), implemented in GenePattern genomic analysis toolkits (Hoshida, PLOS ONE, 2010, 5: e15543; Peck et al., Genome Biol., 2006, 7: R61; Reich et al., Nature Genet., 2006, 38: 500-501). PLS was always determined by using CTRL cells as references. Results are presented as simplified heatmaps showing the classification of PLS global status as poor or good prognosis and the significance of induction/suppression of PLS genes (log 10 of false discovery rate (FDR) values). For each experiment, heatmaps show: in the upper part: the classification of PLS global status as poor (orange) or good (green) prognosis, and in the bottom part: the significance of induction (red) or suppression (blue) of PLS poor- or good-prognosis genes. Global status corresponds to the difference between low risk- and high risk-gene expression. The statistic tests, normalized enrichment score (NES) and FDR values are provided for each PLS experiment (poor- and good-prognosis genes variation and global status) in the Source Data file.
# HCC = conditions: one animal model study (Furuta et al., 2008), circumstantial evidence; cited from earlier work
# natural killer cell = conditions: patients with transarterial chemoembolization (Nishiguchi et al., 2003); cited from earlier work
# [1] = in vivo; cited from earlier work
# [2] = in vivo; cited from earlier work; remark: listed apart in the source
# [3] = tested on: prognostic liver signature (PLS); assay: cPLS model: reversal of the prognostic liver signature in HCV-infected Huh7.5.1dif cells; assay type: cell-based, human; conditions: Huh7.5.1dif cells infected with HCV Jc1 for 7 days, treated 3 additional days; GSEA
# [4] = rodents; cited from earlier work
# [5] = tested on: M1-polarized THP1-derived macrophages; assay: RNA-Seq / GSEA of M1-polarized THP1-derived macrophages treated with Oxmetidine; assay type: cell-based, human
# Description: M1 Macrophage Polarization and HRH2 Blocker Treatment. THP1 cells were cultured in RPMI 1640 Medium with GlutaMAX™-I supplement and HEPES and supplemented with 10% FBS and gentamycin (0.05 mg/mL). M1 macrophage polarization from THP-1 was performed as previously described (Yeung et al., J. Hepatol., 2015, 62: 607-616). To generate MO THP-1 macrophages, THP1 cells were treated with PMA 320 nM for 24 hours. To generate M1-polarized THP-1 macrophages, THP-1 cells were treated with […] then with 100 ng/ml LPS and 20 ng/ml IFNγ for 18 hours. Cells then were treated with HRH2 blockers 20 μM or DMSO vehicle for 72 hours.
# RNA-Seq of M1 macrophages. RNA-Seq was performed on total RNA from MO macrophages, M1-polarized macrophages, and M1-polarized macrophages treated with Oxmetidine, Nizatidine or DMSO (triplicates). RNA-Seq was performed by the Biomedical Sequencing Facility (BSF) CEMM Research Center for Molecular Medicine of the Austrian Academy of Sciences, Vienna (Austria). Briefly, RNA-Seq libraries were generated from 300 ng of total RNA using TruSeq Stranded mRNA Sample Preparation Kit (Illumina, Part Number RS-122-2101). Following purification with poly-T oligo attached magnetic beads, the mRNA was fragmented using divalent cations at 94° C. for 2 minutes. The cleaved RNA fragments were copied into first strand cDNA using reverse transcriptase and random primers. Strand specificity was achieved by replacing dTTP with dUTP during second strand cDNA synthesis using DNA Polymerase I and RNase H. Following addition of a single ‘A’ base and subsequent ligation of the adapter on double stranded cDNA fragments, the products were purified and enriched with PCR (30 seconds at 98° C.; [10 seconds at 98° C., 30 seconds at 60° C., 30 seconds at 72° C.]×12 cycles; 5 minutes at 72° C.) to create the cDNA library. Surplus PCR primers were further removed by purification using AMPure XP beads (Beckman Coulter) and the final cDNA libraries were checked for quality and quantified using 2100 Bioanalyzer (Agilent). Libraries were sequenced on the Illumina HiSeq 4000 as Single-Read 50 base reads following Illumina's instructions. Image analysis and base calling were performed using RTA v2.7.3 and bcl2fastq v2.17.1.14.
# [6] = Farup, Scand. J. Gastroenterol., 1988; cited from earlier work
# [7] = tested on: patient-derived HCC tumor spheroids; assay: Cell viability (ATP, CellTiter-Glo) of patient-derived HCC tumorspheroids; assay type: cell-based, human; conditions: sorafenib 10 μM, 4 days; some of the patient tumors
# Description: Patient-Derived HCC Tumor Spheroids. Tumorspheroids were generated from liver tissues from HCC patients undergoing surgical resection and dissociated using the Human Tumor Dissociation Kit. Total cell populations including epithelical (i.e., cancer cells/hepatocytes) and NPCs were used to generate multicellular tumorspheroids in Corning® 96-well Black/Clear Bottom Low Flange Ultra-Low Attachment Microplates (Corning). After 48 hours, HCC-derived spheroids were treated with nizatidine 50 μM, sorafenib 10 μM or DMSO vehicle control for 4 days. Fresh medium containing DMSO or drugs was added every day. Cell viability was assessed using CellTiter-Glo® (Luminescent Cell Viability Assay), according to manufacturer's instruction.
# [8] = Oxmetidine vs DMSO, 72 hours, GSEA
# [9] = Oxmetidine vs DMSO, 72 hours, GSEA, in contrast to Nizatidine
# [10] = single gene level, top 10 of Oxmetidine modulated genes
smiles,measurement,setting,value
Nc1ncnc2c1nc(Sc1ccc(Cl)cc1)n2[C@@H]1O[C@@H]2COP(=O)(O)O[C@H]2[C@H]1O [8-CPT-cAMP],PLS poor-prognosis status upon perturbation of the HRH2/cAMP/PKA axis,HRH2/cAMP/PKA axis,induction of the poor-prognosis status of the PLS
CN/C(=N/CCSCc1nc[nH]c1C)NC#N [Cimetidine],anti-HCC effect,HCC,anti-HCC effect
same,natural killer cell activity in peripheral blood,natural killer cell,improves natural killer cell activity in peripheral blood
"NC(N)=Nc1nc(CSCCN/C=N/S(=O)(=O)c2ccc(Br)cc2)cs1 [Ebrotidine, 4-bromo-N-[[[2-[[[2-[(diaminomethylene)amino]-4-thiazolyl]methyl]thio]ethyl]amino]methylene] benzenesulfonamide]","activity against ethanol-, aspirin- or stress-induced gastric mucosal damage",[1],gastroprotective activity
same,efficacy for the treatment of gastric or duodenal ulcers or erosive reflux oesophagitis,[2],as effective as Ranitidine
"NC(N)=Nc1nc(CSCCC(N)=NS(N)(=O)=O)cs1 [Famotidine, 3-[[2-(diaminomethylideneamino)-1,3-thiazol-4-yl]methylsulfanyl]-N′-sulfamoyl-propanimidamide]",reversal of the poor prognosis status of the prognostic liver signature (PLS),[3],partial reversal of the PLS
O=S(=O)(NCCNC/C=C/c1ccc(Br)cc1)c1cccc2cnccc12 [H89],PLS poor-prognosis status upon perturbation of the HRH2/cAMP/PKA axis,HRH2/cAMP/PKA axis,reversed the induction of the PLS poor-prognosis status
Cn1nc(CO)nc1NCCCOc1cccc(CN2CCCCC2)c1 [Lavoltidine],gastric carcinoid tumors,[4],produced gastric carcinoid tumors in rodents
"CC(C)/N=C/Nc1ccc(-c2c[nH]cn2)cc1 [Mifentidine, N-(4-(1H-imidazol-4-yl)phenyl)-N′-(1-methylethyl)methanimidamide]",gastric carcinoid tumors,[4],produced gastric carcinoid tumors in rodents
"Cc1[nH]cnc1CSCCNc1ncc(Cc2ccc3c(c2)OCO3)c(=O)[nH]1 [Oxmetidine, 5-(1,3-benzodioxol-5-ylmethyl)-2-[2-[(5-methyl-1H-imidazol-4-yl)methylsulfanyl]ethylamino]-1H-pyrimidin-6-one]",antigen presentation related-pathways,[5]; [8],improves antigen presentation related-pathways
same,"pathway mediating inflammation (TNFα, IL6)",[5]; [8],strongly suppresses pathway mediating inflammation
same,IFN response,[5]; [9],strong reduction in IFN response
same,cell metabolism,[5]; [9],improvement of cell metabolism
same,"expression of key genes regulating lipid metabolism (ABCG1, ABCA1, SREBF1)",[5]; [10],increase in expression of key genes regulating lipid metabolism
same,"pro-inflammatory gene expression (CCL7, CCL2, IL6)",[5]; [10],decrease in pro-inflammatory gene expression
"Cc1ncc(-c2csc(N=C(N)N)n2)[nH]1 [Zaltidine, 2-[4-(2-methyl-1H-imidazol-5-yl)-1,3-thiazol-2-yl]guanidine]",hepatotoxicity,[6],hepatotoxic
NCCc1c[nH]cn1 [histamine],PLS poor-prognosis status upon perturbation of the HRH2/cAMP/PKA axis,HRH2/cAMP/PKA axis,Induction of the PLS poor-prognosis status
CNC(=O)c1cc(Oc2ccc(NC(=O)Nc3ccc(Cl)c(C(F)(F)F)c3)cc2)ccn1 [sorafenib],tumor spheroid response,[7],did not respond
